In ChEMBL document CHEMBL1158060, “Taspine: bioactivity-guided isolation and molecular ligand-target insight of a potent acetylcholinesterase inhibitor from Magnolia x soulangiana” (J Nat Prod, 2006):

Key:
Acetylcholinesterase [1] = biological target: Acetylcholinesterase (Electrophorus electricus, UniProt O42275)
Cholinesterase = Cholinesterase (Equus caballus, UniProt P81908)
Description: Inhibition of horse serum BuChE by Ellman's method

Acetylcholinesterase [2] = biological target: Acetylcholinesterase (Homo sapiens, UniProt P22303)
Chain of Acetylcholinesterase (Homo sapiens, UniProt P22303) (P22303 whole entry): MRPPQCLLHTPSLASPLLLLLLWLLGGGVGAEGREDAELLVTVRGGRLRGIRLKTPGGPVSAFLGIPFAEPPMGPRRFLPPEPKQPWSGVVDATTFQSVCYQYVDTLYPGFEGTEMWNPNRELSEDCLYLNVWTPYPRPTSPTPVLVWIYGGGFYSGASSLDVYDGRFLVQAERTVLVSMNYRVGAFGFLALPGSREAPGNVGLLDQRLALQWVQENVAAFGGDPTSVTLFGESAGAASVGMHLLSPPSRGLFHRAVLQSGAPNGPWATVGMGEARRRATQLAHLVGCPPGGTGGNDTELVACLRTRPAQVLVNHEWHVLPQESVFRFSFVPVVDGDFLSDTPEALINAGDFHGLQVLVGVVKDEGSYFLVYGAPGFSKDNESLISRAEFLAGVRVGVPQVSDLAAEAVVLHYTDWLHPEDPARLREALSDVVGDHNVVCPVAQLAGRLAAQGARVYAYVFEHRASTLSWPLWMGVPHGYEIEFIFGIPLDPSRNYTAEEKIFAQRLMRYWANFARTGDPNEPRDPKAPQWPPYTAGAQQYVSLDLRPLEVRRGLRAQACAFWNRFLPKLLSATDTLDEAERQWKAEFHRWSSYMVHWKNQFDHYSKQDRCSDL
Description: Inhibition of human AChE by Ellman's assay

Chain of Cholinesterase (P81908 whole entry): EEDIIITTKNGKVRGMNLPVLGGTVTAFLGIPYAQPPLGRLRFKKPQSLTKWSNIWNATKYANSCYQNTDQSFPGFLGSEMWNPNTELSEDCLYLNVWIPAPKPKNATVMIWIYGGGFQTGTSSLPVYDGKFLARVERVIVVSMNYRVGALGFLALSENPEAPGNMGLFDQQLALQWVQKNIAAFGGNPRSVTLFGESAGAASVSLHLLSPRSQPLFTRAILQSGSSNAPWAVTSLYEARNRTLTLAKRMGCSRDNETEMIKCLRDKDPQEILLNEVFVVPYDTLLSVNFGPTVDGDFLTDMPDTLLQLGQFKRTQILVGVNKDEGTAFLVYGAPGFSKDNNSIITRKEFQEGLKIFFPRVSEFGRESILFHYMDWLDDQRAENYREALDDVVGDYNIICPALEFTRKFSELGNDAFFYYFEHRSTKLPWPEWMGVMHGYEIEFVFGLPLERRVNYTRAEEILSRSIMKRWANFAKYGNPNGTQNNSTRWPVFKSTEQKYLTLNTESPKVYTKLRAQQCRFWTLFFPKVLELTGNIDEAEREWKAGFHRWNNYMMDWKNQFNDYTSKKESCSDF
Chain of Acetylcholinesterase (Electrophorus electricus, UniProt O42275) (O42275 whole entry): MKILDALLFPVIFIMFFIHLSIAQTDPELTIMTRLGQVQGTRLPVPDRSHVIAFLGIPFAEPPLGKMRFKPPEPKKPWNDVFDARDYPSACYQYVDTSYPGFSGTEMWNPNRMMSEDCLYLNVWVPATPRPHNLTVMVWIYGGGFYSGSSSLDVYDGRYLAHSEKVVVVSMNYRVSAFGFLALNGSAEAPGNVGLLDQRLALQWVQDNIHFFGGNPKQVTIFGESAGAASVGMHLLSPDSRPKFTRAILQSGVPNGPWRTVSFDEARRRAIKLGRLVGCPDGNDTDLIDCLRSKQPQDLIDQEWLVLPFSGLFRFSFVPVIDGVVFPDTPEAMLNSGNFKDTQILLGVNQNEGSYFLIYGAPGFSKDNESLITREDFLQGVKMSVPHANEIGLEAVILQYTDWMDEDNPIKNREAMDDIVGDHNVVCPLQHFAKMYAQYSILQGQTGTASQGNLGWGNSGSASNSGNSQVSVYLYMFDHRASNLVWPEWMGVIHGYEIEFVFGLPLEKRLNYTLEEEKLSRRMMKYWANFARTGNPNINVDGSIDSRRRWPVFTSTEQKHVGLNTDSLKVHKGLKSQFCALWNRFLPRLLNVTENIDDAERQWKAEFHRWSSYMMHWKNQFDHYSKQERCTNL

Compound | IC50 (Acetylcholinesterase [1]) | IC50 (Cholinesterase) | IC50 (Acetylcholinesterase [2])
COc1c(O)cc2c3c1-c1ccccc1C[C@H]3NCC2 [(-)-ASIMILOBINE] | > 100000 nM | > 100 µM | > 100000 nM
COc1ccc2c(=O)oc3c(OC)cc(CCN(C)C)c4c(=O)oc1c2c34 [TASPINE] | 330 nM | > 100 µM | 540 nM
